Where no end group is shown, it is not given here.
Key:
[1] = test system: bleomycin-induced pulmonary fibrosis; assay: Bleomycin-induced pulmonary fibrosis; assay type: in vivo, C57BL/6J mice; details: 28 mg/kg i.p. every other day, Masson's trichrome staining after 22 days
Experimental: FIGS. 20A and 20B show suppressive effects of MPS peptide on pulmonary fibrosis in vivo. C57BL/6 mice were intraperitoneally given either PBS, nintedanib (28 mg/kg), MPS peptide (28 mg/kg) or MPS-12042 (7 mg/kg) at the dosage of every two days after 9 days of intratracheal exposure with one shot of saline or bleomycin (33 μg in […] of saline, n=5). (FIG. 20A) Representative Masson trichrome and immunohistochemical staining of phospho-MARCKS (Ser159/163) and phospho-AKT (Ser473) (n=6). (FIG. 20B) Hydroxyproline level in the left lung of mice as described above was determined by a hydroxyproline ELISA assay (mean±SD, *p<0.05).
MPS peptide potentially serves as an antifibrotic agent in bleomycin-induced pulmonary fibrosis. Bleomycin remains the standard agent for induction of experimental pulmonary fibrosis in animals^23. Thus, 8-week-old female C57BL/6J mice received saline or bleomycin intratracheally (33 μg in […] of saline) as previously described^23. Lung specimens from bleomycin- or saline-treated mice were collected and subjected to immunofluorescence staining. […] Next, lung fibroblast cells isolated from saline- or bleomycin-treated mice (two mice fibroblast cell lines were gifts from Dr. Sem H. Phan, University of Michigan School of Medicine, MI) were incubated with either 100 μM control or MPS peptide for 48 hours. […]

[2] = test system: primary IPF fibroblast cells; assay: Cell motility and colony-forming ability of primary IPF fibroblasts; assay type: cell-based, human
Experimental: FIGS. 4A-4B: MARCKS inhibition using MPS peptide reduced primary IPF fibroblast cell motility (FIG. 4A) and colony-forming ability (FIG. 4B) n=4; *, p<0.05.
An in vitro cell migration assay was performed as previously described^13, 14 using Transwell chambers (8-μm pore size; Costar, Cambridge, Mass.). Briefly, 2×10^4 cells were seeded on top of the polycarbonate filters, and 0.5 ml of growth medium with scrambled or MPS peptide (100 μM) was added to both the upper and lower wells. After incubation for 20 hours, filters were swabbed with a cotton swab, fixed with methanol, and then stained with Giemsa solution (Sigma). The cells attached to the lower surface of the filter were counted under a light microscope (10× magnification).
Cells were seeded onto 96-well plates at a density of 5-10×10^3 cells per well and cultured for the indicated treatment. Cell proliferation was evaluated using a MTS assay kit (Promega, Madison, Wis.). Twenty microliters of the combined MTS/PMS solution was added into each well, incubated for 3 hours at 37° C., and the absorbance was measured at 490 nm by using an ELISA reader. […] After 72 hours, both attached and detached cells were collected and then stained with 0.2% trypan blue (0.1% final concentration), and the number of trypan blue-positive and -negative cells was counted using a haemocytometer under low-power microscopy. […]

[3] = test system: oncospheres derived from H292 cells; assay: Sphere-forming assay, smoke-enriched oncospheres derived from H292 cells; assay type: cell-based
Source text: FIG. 18A-18C: (FIG. 18A) Sphere-forming assays for evaluating the inhibitory effect of the MPS peptide on smoke-mediated stemness. (FIG. 18B) Quantification of the number and size of oncospheres. (FIG. 18C) RT-qPCR analyses of mRNA expression in the above oncospheres.
Targeting the MARCKS PSD is associated with inhibition of stem-like cell properties. In light of the importance of the PSD in the functionality of MARCKS protein, Applicant designed a 25-mer MPS peptide to mimic the MARCKS phosphorylation site domain (PSD). […] Applicant's initial studies have shown that elevation of phospho-MARCKS in lung cancer spheres acted in parallel with increased stemness markers, such as CD133, Oct3/4, SOX2 and Nanog (data not included). The oncospheres were derived from high MARCKS-expressing lung cancer cell lines (H1975 and CL1-5) and primary lung cancer cells (LG704 and LC3: pleural effusion cells isolated from patients with advanced stage) in non-adherent serum-free culture conditions as described previously^30-32. Flow cytometry confirmed that ˜80% of LG704 oncosphere cells are CD133-positive, a major lung CSCs marker. […] The sphere-forming ability was assessed by counting the number and size of tumor spheres (oncospheres) under a microscope. […]

KKKKKRFSFKKSFKLSGFSFKKNKK [MPS peptide]
fibroblastic lesions and deposited extracellular matrix in the lungs [1]: decreases of fibroblastic lesions and deposited extracellular matrix | cell motility [2]: reduces | proliferation (colony-forming ability) [2]: reduces | number and size of oncospheres [3]: inhibitory effects | expression of stemness genes ([3]; RT-qPCR): inhibitory effects
